Among the data in patent US8791267B2, “Biaryl PDE4 inhibitors for treating inflammatory, cardiovascular and CNS disorders” (Decode Genetics EHF, priority 2007, dated 2014) are IC50 values, retold here.

One assay deals with PDE4 (Homo sapiens, UniProt Q08499). As to the kind of experiment: In-vitro assay for PDE4 enzymes, real-time enzyme-coupled spectrophotometric assay (Table 9). The class given is biochemical. To be noted: human PDE4D; activity class, Table 9; read-out: hPDE4D.
A further assay concerns the target PDE4B (Homo sapiens, UniProt Q07343). The experiment in a line: In-vitro assay for PDE4 enzymes, real-time enzyme-coupled spectrophotometric assay, PDE4B Activity (Table 10). The class given is biochemical. The settings on record: human PDE4B (hPDE4B), enzyme-coupled spectrophotometric assay; read-out: PDE4B Activity, hPDE4B.

Sequence of PDE4B (Q07343 whole entry): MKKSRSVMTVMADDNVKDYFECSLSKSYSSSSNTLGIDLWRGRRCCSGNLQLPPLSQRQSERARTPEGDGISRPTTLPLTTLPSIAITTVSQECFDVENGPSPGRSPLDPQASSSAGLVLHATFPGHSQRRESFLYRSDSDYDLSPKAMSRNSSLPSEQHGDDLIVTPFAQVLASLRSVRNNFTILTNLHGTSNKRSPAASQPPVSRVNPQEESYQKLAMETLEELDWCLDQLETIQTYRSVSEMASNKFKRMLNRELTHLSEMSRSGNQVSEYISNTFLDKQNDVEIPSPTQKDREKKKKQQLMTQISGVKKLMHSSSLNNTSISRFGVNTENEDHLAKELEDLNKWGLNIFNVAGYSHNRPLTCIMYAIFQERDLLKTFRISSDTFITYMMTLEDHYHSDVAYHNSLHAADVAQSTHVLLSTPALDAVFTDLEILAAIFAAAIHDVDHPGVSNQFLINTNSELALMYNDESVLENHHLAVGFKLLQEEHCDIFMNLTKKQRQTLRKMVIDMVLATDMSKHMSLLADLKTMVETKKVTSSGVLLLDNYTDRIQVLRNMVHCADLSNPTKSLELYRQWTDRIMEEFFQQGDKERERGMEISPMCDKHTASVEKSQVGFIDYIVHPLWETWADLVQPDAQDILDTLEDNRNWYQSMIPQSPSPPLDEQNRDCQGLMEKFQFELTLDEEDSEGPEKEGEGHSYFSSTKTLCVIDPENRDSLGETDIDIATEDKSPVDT
Sequence of PDE4 (Q08499 whole entry): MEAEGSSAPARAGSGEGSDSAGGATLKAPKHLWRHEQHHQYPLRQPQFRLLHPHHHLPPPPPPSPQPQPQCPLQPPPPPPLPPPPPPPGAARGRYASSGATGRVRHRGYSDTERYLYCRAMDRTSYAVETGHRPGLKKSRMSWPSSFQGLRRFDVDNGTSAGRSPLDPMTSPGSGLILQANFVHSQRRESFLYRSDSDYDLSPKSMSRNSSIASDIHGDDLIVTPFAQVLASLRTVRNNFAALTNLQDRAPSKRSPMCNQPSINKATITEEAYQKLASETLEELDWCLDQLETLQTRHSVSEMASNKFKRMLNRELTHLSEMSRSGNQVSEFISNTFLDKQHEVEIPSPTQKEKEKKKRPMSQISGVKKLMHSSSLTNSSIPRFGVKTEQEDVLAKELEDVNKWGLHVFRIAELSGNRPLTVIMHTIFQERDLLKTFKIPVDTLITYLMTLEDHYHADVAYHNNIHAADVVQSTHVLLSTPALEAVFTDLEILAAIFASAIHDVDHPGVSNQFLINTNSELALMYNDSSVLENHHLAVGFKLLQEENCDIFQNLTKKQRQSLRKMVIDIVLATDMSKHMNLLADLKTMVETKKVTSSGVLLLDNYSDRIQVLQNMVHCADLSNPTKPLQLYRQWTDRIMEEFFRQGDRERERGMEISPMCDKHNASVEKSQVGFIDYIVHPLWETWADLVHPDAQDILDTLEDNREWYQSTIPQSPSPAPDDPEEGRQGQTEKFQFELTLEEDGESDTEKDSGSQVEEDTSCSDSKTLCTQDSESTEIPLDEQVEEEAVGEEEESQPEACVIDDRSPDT

Consider `COc1ccc(COC2=CC(=O)CC2)cc1-c1cccc(C(F)(F)F)c1` [P-091, 3-(6-Methoxy-3′-trifluoromethyl-biphenyl-3-ylmethoxy)-cyclopent-2-enone], for which the IC50 on PDE4 is below 5 µM; on PDE4B, 21 to 40 µM.
For `COc1ccc(COC2=CC(=O)CC2)cc1-c1cccc([N+](=O)[O-])c1` [P-092, 3-(6-Methoxy-3′-nitro-biphenyl-3-ylmethoxy)-cyclopent-2-enone] the same measures were below 5 µM and below 5 µM.
As to `COc1cc(F)c(C(O)c2ccc(F)cc2)cc1-c1cccc([N+](=O)[O-])c1` (stereo not shown) [P-093, (4-Fluoro-6-methoxy-3′-nitro-biphenyl-3-yl)-(4-fluoro-phenyl)-methanol], the IC50 is below 5 µM at PDE4 and 5 to 20 µM on PDE4B.
For the compound `COc1cc(F)c(Cc2ccc(F)cc2)cc1-c1cccc([N+](=O)[O-])c1` [P-094, 4-Fluoro-5-(4-fluoro-benzyl)-2-methoxy-3′-nitro-biphenyl], the IC50 at PDE4 and at PDE4B was below 5 µM each time.
Regarding `COc1ccc(Cc2ccc(F)cc2)c(O)c1-c1cccc([N+](=O)[O-])c1` [P-099, 3-(4-Fluoro-benzyl)-6-methoxy-3′-nitro-biphenyl-2-ol], the IC50 on PDE4 and at PDE4B was below 5 µM each time.
Regarding `COc1ccc(Cc2c(C)nn(CC(N)=O)c2C)cc1-c1cccc([N+](=O)[O-])c1` [P-101, 2-[4-(6-Methoxy-3′-nitro-biphenyl-3-ylmethyl)-3,5-dimethyl-pyrazol-1-yl]-acetamide], the IC50 on PDE4 and on PDE4B was below 5 µM throughout.
For the compound `COc1ccc(Cc2cccc(O)c2)cc1-c1cccc([N+](=O)[O-])c1` [P-102, 3-(6-Methoxy-3′-nitro-biphenyl-3-ylmethyl)-phenol], the IC50 on PDE4 and at PDE4B was below 5 µM each time.
As to `COc1ccc(Cc2cccc(CO)c2)cc1-c1cccc([N+](=O)[O-])c1` [P-103, [3-(6-Methoxy-3′-nitro-biphenyl-3-ylmethyl)-phenyl]-methanol], the IC50 at PDE4 and on PDE4B was below 5 µM in each case.
Regarding `COc1ccc(Cn2ccccc2=O)cc1-c1cccc([N+](=O)[O-])c1` [P-104, 1-(6-Methoxy-3′-nitro-biphenyl-3-ylmethyl)-1H-pyridin-2-one], the IC50 on PDE4 and on PDE4B was below 5 µM in each case.
With `COc1ccc(Cc2ccccc2O)cc1-c1cccc([N+](=O)[O-])c1` [P-105, 2-(6-Methoxy-3′-nitro-biphenyl-3-ylmethyl)-phenol], the IC50 at PDE4 and at PDE4B was below 5 µM each time.
Consider `COc1ccc(Cc2cccnc2)c(O)c1-c1cccc([N+](=O)[O-])c1` [P-106], for which the IC50 at PDE4 and on PDE4B was below 5 µM throughout.
As for `COc1ccc(Cc2ccc(NC(C)=O)cc2)c(F)c1-c1cccc([N+](=O)[O-])c1` [P-107], the IC50 on PDE4 and at PDE4B was below 5 µM in each case.
`COc1ccc(Cc2cccnc2Cl)c(O)c1-c1cccc([N+](=O)[O-])c1` [P-109]: the IC50 on PDE4 and on PDE4B was below 5 µM throughout.
As to `COc1ccc(Cc2ccc(N)nc2)cc1-c1cccc([N+](=O)[O-])c1` [P-111], the IC50 on PDE4 and at PDE4B was below 5 µM in each case.
Turning to `COc1ccc(Cc2ccc(NC(=O)OC(C)(C)C)cc2)cc1-c1cccc([N+](=O)[O-])c1` [P-112], the IC50 at PDE4 and at PDE4B was below 5 µM each time.
As to `COc1ccc(Cc2ccc(N)cc2)cc1-c1cccc([N+](=O)[O-])c1` [P-113], the IC50 on PDE4 and on PDE4B was below 5 µM throughout.
`COc1ccc(Cc2ccc(NC(C)=O)cc2)cc1-c1cccc([N+](=O)[O-])c1` [P-114]: the IC50 on PDE4 and at PDE4B was below 5 µM each time.
For `COc1ccc(Cc2ccnn2C)cc1-c1ccc2c(c1)OC(F)(F)O2` [P-115, 5-[3-(2,2-Difluoro-benzo[1,3]dioxol-5-yl)-4-methoxy-benzyl]-1-methyl-1H-pyrazole], the IC50 at PDE4 and on PDE4B was below 5 µM in each case.
Regarding `O=[N+]([O-])c1cccc(-c2c(OC(F)F)ccc(Cc3ccc(F)cc3)c2F)c1` [P-116], the IC50 at PDE4 and on PDE4B was below 5 µM in each case.
For the compound `COc1ccc(C(O)c2ccc(F)cc2)cc1-c1cccc(-c2nnco2)c1` (stereo not shown) [P-117, (4-Fluoro-phenyl)-(6-methoxy-3′-[1,3,4]oxadiazol-2-yl-biphenyl-3-yl)-methanol], the IC50 on PDE4 is below 5 µM; at PDE4B, 21 to 40 µM.
As to `COc1ccc(Cc2ccc(F)cc2)cc1-c1cccc(-c2nnco2)c1` [P-118, 2-[5′-(4-Fluoro-benzyl)-2′-methoxy-biphenyl-3-yl]-[1,3,4]oxadiazole], the IC50 on PDE4 and on PDE4B was below 5 µM in each case.
For the compound `COc1ccc(Cc2ccc(F)cc2O)cc1-c1cccc([N+](=O)[O-])c1` [P-119, 5-Fluoro-2-(6-methoxy-3′-nitro-biphenyl-3-ylmethyl)-phenol], the IC50 at PDE4 and on PDE4B was below 5 µM each time.
Consider `COc1ccc(Cc2ccc(NC(=O)CCC(=O)O)cc2)cc1-c1cccc([N+](=O)[O-])c1` [P-122], for which the IC50 at PDE4 is below 5 µM; on PDE4B, 5 to 20 µM.
For `COc1ccc(Cc2ccc(NS(C)(=O)=O)cc2)cc1-c1cccc([N+](=O)[O-])c1` [P-123] the same measures were below 5 µM and below 5 µM.
For `COc1ccc(Cc2ccc(OC)c(-c3cccc([N+](=O)[O-])c3)c2O)cn1` [P-125] the same measures were below 5 µM and below 5 µM.
For `COc1ccc(Cc2ccc(Cl)nc2)c(O)c1-c1cccc([N+](=O)[O-])c1` [P-126] the same measures were below 5 µM and below 5 µM.
For `COc1ccc(CC2CCCS2)c(F)c1-c1cccc([N+](=O)[O-])c1` (stereo not shown) [P-127], the IC50 on PDE4 and on PDE4B was below 5 µM throughout.
Turning to `COc1ccc(CC2CCCS2)c(F)c1-c1cccc([N+](=O)[O-])c1` (stereo not shown) [P-128, 2-(2-fluoro-6-methoxy-3′-nitro-biphenyl-3-ylmethyl)-tetrahydro-thiophene], the IC50 on PDE4 and on PDE4B was below 5 µM each time.
For `COc1ccc(Cc2ccno2)c(O)c1-c1cccc([N+](=O)[O-])c1` [P-130, 3-isoxazol-5-ylmethyl-6-methoxy-3′-nitro-biphenyl-2-ol], the IC50 at PDE4 and at PDE4B was below 5 µM throughout.
With `COc1ccc(CN2C(=O)CC[C@H]2CO)cc1-c1cccc([N+](=O)[O-])c1` [P-131, (S)-5-Hydroxymethyl-1-(6-methoxy-3′-nitro-biphenyl-3-ylmethyl)-pyrrolidin-2-one], the IC50 on PDE4 and on PDE4B was 5 to 20 µM throughout.
For the compound `COc1ccc(Cc2ccccc2CN)cc1-c1cccc([N+](=O)[O-])c1` [P-133], the IC50 at PDE4 and on PDE4B was 5 to 20 µM in each case.
For the compound `COc1ccc(Cc2ccccc2CO)cc1-c1cccc([N+](=O)[O-])c1` [P-134, [2-(6-Methoxy-3′-nitro-biphenyl-3-ylmethyl)-phenyl]-methanol], the figures for the IC50 on PDE4 and at PDE4B were below 5 µM and 5 to 20 µM, respectively.
For `COc1ccc(Cc2ccc(F)c(CO)c2)cc1-c1cccc([N+](=O)[O-])c1` [P-135] the same measures were below 5 µM and below 5 µM.
For `COc1ccc(Cc2ccc(N)cc2)c(F)c1-c1cccc([N+](=O)[O-])c1` [P-136] the same measures were below 5 µM and below 5 µM.
For `COc1ccc(Cc2ccc(C#N)cc2)c(O)c1-c1cccc([N+](=O)[O-])c1` [P-138, 4-(2-Hydroxy-6-methoxy-3′-nitro-biphenyl-3-ylmethyl)-benzonitrile] the same measures were below 5 µM and below 5 µM.
Turning to `COc1ccc(Cc2ccc(F)cc2)cc1-c1cccc(C(C)=O)c1` [P-140, 1-[5′-(4-Fluoro-benzyl)-2′-methoxy-biphenyl-3-yl]-ethanone], the IC50 at PDE4 and at PDE4B was below 5 µM in each case.
On to `COc1ccc(Cc2ccc(O)cc2)cc1-c1cccc([N+](=O)[O-])c1` [P-142], for which the IC50 on PDE4 and on PDE4B was below 5 µM throughout.
Consider `COc1ccc(Cc2ccc(NC(=O)CNC(=O)OC(C)(C)C)cc2)cc1-c1cccc([N+](=O)[O-])c1` [P-143], for which the IC50 on PDE4 and on PDE4B was below 5 µM throughout.
For the compound `COc1ccc(Cc2ccc(NC(=O)CN(C)C)cc2)cc1-c1cccc([N+](=O)[O-])c1` [P-144], the IC50 on PDE4 and on PDE4B was below 5 µM each time.
Regarding `COc1ccc(Cc2ccc(NC(=O)CN)cc2)cc1-c1cccc([N+](=O)[O-])c1` [P-145], the IC50 at PDE4 and on PDE4B was below 5 µM each time.
For `COc1ccc(Cc2ccc(NC(=O)CCN3CCCCC3)cc2)cc1-c1cccc([N+](=O)[O-])c1` [P-146], the IC50 on PDE4 was below 5 µM; at PDE4B, 5 to 20 µM.
For `COc1ccc(Cc2ccc(NC(=O)CN(C)C)cc2)c(F)c1-c1cccc([N+](=O)[O-])c1` [P-147] the same measures were below 5 µM and below 5 µM.
With `COc1ccc(Cc2ccc(CN)cc2)c(F)c1-c1cccc([N+](=O)[O-])c1` [P-148], the IC50 at PDE4 and at PDE4B was below 5 µM each time.
As for `COc1ccc(Cc2ccc(OCCN(C)C)nc2)c(O)c1-c1cccc([N+](=O)[O-])c1` [P-150], the IC50 on PDE4 and on PDE4B was 5 to 20 µM throughout.
As to `COc1ccc(Cc2ccc(Cl)nc2)c(F)c1-c1cccc([N+](=O)[O-])c1` [P-152], the IC50 on PDE4 and at PDE4B was below 5 µM throughout.
In the case of `COc1ccc(Cn2cncc2CO)cc1-c1cccc([N+](=O)[O-])c1` [P-153, [3-(6-Methoxy-3′-nitro-biphenyl-3-ylmethyl)-3H-imidazol-4-yl]-methanol], the IC50 at PDE4 is below 5 µM; on PDE4B, 5 to 20 µM.
Turning to `COc1ccc(Cn2cnc(CO)c2)cc1-c1cccc([N+](=O)[O-])c1` [P-154, [1-(6-Methoxy-3′-nitro-biphenyl-3-ylmethyl)-1H-imidazol-4-yl]-methanol], the IC50 on PDE4 and at PDE4B was below 5 µM in each case.
